Laboratory results from ChEMBL document CHEMBL1201862, “PubChem BioAssay data set” (2004).
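Growth conditions: 96-well plates. Treatment: test compound, 48 hours, 5 concentrations. Analysis: linear interpolation between bracketing concentrations; unreached endpoints set to highest concentration. GI50 marks 50% less growth.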 Calls of active or inactive are those of the source. Rule as the data show it: active = GI50 up to about 1.1 µM and inactive = higher.

Legend:
Assay in all cases: inhibition of tumour cell growth, NCI panel, 48 h
A549 = test system: A549
CCRF-CEM = test system: CCRF-CEM
COLO 205 = test system: COLO 205
DU-145 = test system: DU-145
HCC 2998 = test system: HCC 2998
HOP-62 = test system: HOP-62
Hs-578T = test system: Hs-578T
IGROV-1 = test system: IGROV-1
M14 = test system: M14
MDA-MB-231 = test system: MDA-MB-231
Malme-3M = test system: Malme-3M
OVCAR-5 = test system: OVCAR-5
OVCAR-8 = test system: OVCAR-8
RXF 393 = test system: RXF 393
SF-268 = test system: SF-268
SK-MEL-5 = test system: SK-MEL-5
SK-OV-3 = test system: SK-OV-3
SN12C = test system: SN12C
SR = test system: SR
OVCAR-3 = test system: OVCAR-3

Measured: GI50

Nc1nc2cc(Cl)ccc2n1N
inactive: A549 > 100 µM | CCRF-CEM > 100 µM | COLO 205 > 100 µM | DU-145 > 100 µM | HCC 2998 > 100 µM | HOP-62 87.1 µM | Hs-578T > 100 µM | IGROV-1 > 100 µM | M14 > 100 µM | MDA-MB-231 > 100 µM | Malme-3M > 100 µM | OVCAR-5 > 100 µM | OVCAR-8 > 100 µM | RXF 393 67 µM | SF-268 > 100 µM | SK-MEL-5 > 100 µM | SK-OV-3 33.8 µM | SN12C > 100 µM | SR > 100 µM

Clc1ccc(C2=C(c3ccccc3)C(c3ccc(Cl)cc3)N3C(=N[C@H]4CCCC[C@@H]43)N2)cc1 (some centres not stated)
inactive: A549 10.3 µM | CCRF-CEM 3.58 µM | COLO 205 6.64 µM | DU-145 13.2 µM | HCC 2998 3.08 µM | Hs-578T 19.4 µM | IGROV-1 12.9 µM | M14 12.4 µM | MDA-MB-231 14.9 µM | Malme-3M 16.5 µM | OVCAR-3 13.8 µM | OVCAR-5 16.3 µM | OVCAR-8 13.7 µM | RXF 393 13.9 µM | SF-268 19.9 µM | SK-MEL-5 12.3 µM | SK-OV-3 17.1 µM | SR 2.09 µM

COc1ccc2c(c1)CC1Cc3cc(OC)c(OC)cc3CN1CC2 (configuration not stated)
inactive: A549 42.4 µM | CCRF-CEM 19.5 µM | COLO 205 23.7 µM | DU-145 36.6 µM | HCC 2998 33.4 µM | HOP-62 71.3 µM | Hs-578T 53 µM | IGROV-1 17.3 µM | M14 48.2 µM | MDA-MB-231 42.6 µM | Malme-3M 40.2 µM | OVCAR-3 72.4 µM | OVCAR-5 56 µM | OVCAR-8 33.8 µM | RXF 393 21 µM | SF-268 82.2 µM | SK-MEL-5 21.3 µM | SK-OV-3 71.6 µM | SR 17.7 µM

CCn1c(-c2ccc(C)cc2)cs/c1=N\C(P(=O)(O)O)P(=O)(O)O
inactive: A549 > 100 µM | CCRF-CEM > 100 µM | COLO 205 > 100 µM | DU-145 > 100 µM | HCC 2998 > 100 µM | HOP-62 > 100 µM | Hs-578T > 100 µM | IGROV-1 > 100 µM | M14 > 100 µM | MDA-MB-231 > 100 µM | Malme-3M > 100 µM | OVCAR-3 > 100 µM | OVCAR-5 > 100 µM | OVCAR-8 > 100 µM | RXF 393 > 100 µM | SF-268 > 100 µM | SK-MEL-5 31.6 µM | SK-OV-3 > 100 µM | SR > 100 µM

COc1ccc(/C=C(\C#N)c2nc(-c3cc4ccccc4oc3=O)cs2)cc1
inactive: A549 32.3 µM | CCRF-CEM > 100 µM | COLO 205 50.6 µM | DU-145 65.2 µM | HCC 2998 32.6 µM | HOP-62 15.2 µM | Hs-578T 24.6 µM | IGROV-1 22.2 µM | M14 24.8 µM | MDA-MB-231 14.8 µM | Malme-3M 20.1 µM | OVCAR-5 51.1 µM | OVCAR-8 18.1 µM | RXF 393 21.1 µM | SF-268 17.9 µM | SK-MEL-5 22.1 µM | SK-OV-3 16.4 µM | SN12C 23.8 µM | SR > 100 µM

CNC(=S)N/N=C1\C(=O)N(CN2CCOCC2)c2ccc([N+](=O)[O-])cc21
inactive: A549 31.9 µM | CCRF-CEM 23.5 µM | COLO 205 26.9 µM | DU-145 13.7 µM | HCC 2998 14.9 µM | HOP-62 14.1 µM | Hs-578T 25 µM | M14 31.6 µM | MDA-MB-231 11.9 µM | Malme-3M 16.1 µM | OVCAR-3 17.5 µM | OVCAR-5 22.8 µM | RXF 393 16.4 µM | SF-268 20.2 µM | SK-MEL-5 32.5 µM | SK-OV-3 16.8 µM | SN12C 16.4 µM | SR 53.3 µM
